# Laboratory results reported in patent publication US4219668A, “4-Hydroxy,4-biphenylbutyric acid” (American Cyanamid Company, priority 1979, dated 1980).
# Columns and labels:
# [1] = British Pat. No. 1,390,091; cited from earlier work
# [2] = test system: aggregation of thromocytes; conditions: British Pat. No. 1,390,091; cited from earlier work
# [3] = test system: respiratory depression associated with platelet aggregation and thrombosis induced by arachidonic acid; experiment: Inhibition of arachidonic acid-induced respiratory depression in mice; assay type: in vivo; conditions: arachidonic acid 50 mg./kg. i.v. two hours later
# Procedure: In a second test the in vivo activity is determined in mice. […] Mice were treated orally by gastric lavage with the test compounds in a starch suspension at various dosage levels. Two hours later a challenge dose of arachidonic acid was given to the mice intravenously at a concentration of 50 mg./kg. The period of respiratory distress for each animal was recorded in seconds by observation. The results of a typical compound of this invention appear in Table II in terms of percent inhibition in comparison with controls.
# [4] = test system: platelet aggregation (collagen-induced, platelet rich plasma); experiment: Inhibition of collagen-induced platelet aggregation ex vivo after oral administration to male rats; assay type: in vivo; conditions: rats bled after one to 2 hours, collagen 500 mcg./ml.
# Procedure: The compounds were administered orally to male rats in various concentrations. After one to 2 hours the rats were bled and platelet rich plasma obtained. Collagen was added at a concentration of 500 mcg./ml. to induce platelet aggregation and comparisons were made between control and treated samples. The percent inhibition of aggregation produced by the test compound was recorded.
# [5] = test system: ultraviolet induced erythema; experiment: Ultraviolet induced erythema in guinea pigs; assay type: in vivo, Albino guinea pigs; conditions: maximum score 3.0
# Procedure: Another method of determining a drug effect on conditions which result in inflammation is by measuring the effect on ultraviolet induced erythema in guinea pigs. Albino guinea pigs were depilitated on their flanks, the evening before testing, with a standard mixture of barium sulfide and gum acacia. On the morning of the test, groups of 4 guinea pigs were dosed by gavage one hour prior (-1 hour) to ultraviolet exposure. At 0 hour they were restrained in a plastic container which allows exposure of 3 circular spots. They were then exposed to ultraviolet irradiation from a "Hanovia" Kromayer lamp, model 10, for 60 seconds. At one and four hours, the degree of erythema for each of the three sites was assessed according to the following scoring system: 0=no erythema, 0.5=incomplete circle or faint erythema and 1.0=[…] circle of distinct erythema. Thus, the maximum score for each animal was 3.0.
# [6] = test system: carrageenin-induced edema; experiment: Acute anti-inflammatory activity, carrageenin-induced paw edema; assay type: in vivo, Royal Hart, Wistar strain rats; conditions: 250 mg./kg. by gavage; 5 hours after drug, 4 hours after carrageenin; edema of control animals/edema of treated animals; >1.41 considered active
# Procedure: In determining the acute anti-inflammatory activity, Royal Hart, Wistar strain rats ranging in weight from 80 to 90 grams were used. The rats were fasted overnight prior to dosing but had free access to water. The compounds were administered in aqueous suspension, by gavage, in a column of 1.7 ml. per 50 g. of rat [corresponds to the hydration volume used by Winter, et al., Proc. Soc. Exp. Biol. and Med. 111, 544-547 (1962)].
# The phlogistic agent used was carrageenin prepared as a sterile 1% suspension in 0.9% aqueous sodium chloride for routine testing. A volume of 0.05 ml. was injected through a 26 gauge needle into the plantar tissue of the right hind paw. Measurements were made 5 hours after drug administration (4 hours after carrageenin challenge).
# Volumes of both the normal and carrageenin inflamed feet were determined. The difference between the two measurements is considered to be the increased edema due to the carrageenin administration. Results are expressed as a C/T efficacy ratio (edema of control animals/edema of treated animals) and a C/T ratio of greater than 1.41 is considered active.
# [7] = test system: adjuvant induced arthritis (Freund's adjuvant); experiment: Chronic inflammation, adjuvant induced arthritis; assay type: in vivo, Royal Hart, Wistar strain rats; conditions: 50 mg./kg. oral once daily, days 0 through 13
# Procedure: In a second test the activity against chronic inflammation in adjuvant induced arthritis was determined. Groups of 3 Royal Hart, Wistar strain rats, weighing 200±10 g. each were injected intradermally in the right hind paw with Freund's adjuvant (dried human tubercle bacilli in a mineral oil vehicle) at a dose of 2 mg./kg. of body weight. Test compounds were administered orally in a 1.5% starch vehicle at 50 mg./kg. of body weight once daily on days 0 through 13 post challenge. Control rats were treated in a similar manner, but given only starch vehicle. On the 14th day post challenge the diameter of the injected paw (primary lesion) was measured by micrometer caliper. The volume of inflamed paws was estimated from these measurements and the results are expressed as percent inhibition of swelling as compared to controls. At the same time, the other inflamed sites, such as ears, paws and tail (secondary lesions) were observed and each rat was graded as to the degree of inflammation and swelling present. The grading is based on a scale of 0 to 24, where 0 represents a complete absence of induced arthritic nodules and 24 represents the maximum degree of inflammation. The mean grade for each treated group is calculated and the effects of each compound are expressed as percent inhibition of the control grade. Table IV records the results of this test on a typical compound of this invention.
# [8] = 62.5 mg./kg. by gavage 1 hour prior to UV, 4 animals
# [9] = 125 mg./kg. by gavage 1 hour prior to UV, 4 animals
# [10] = 250 mg./kg. by gavage 1 hour prior to UV, 8 animals
Structure (SMILES),activity as indicated (antiphlogistic) [1],activity as indicated (aggregation of thromocytes) [2],% Inhibition (period of respiratory distress) ([3]; 1 mg./kg. oral) [%],% Inhibition (period of respiratory distress) ([3]; 10 mg./kg. oral) [%],% Inhibition (period of respiratory distress) ([3]; 25 mg./kg. oral) [%],% Inhibition (period of respiratory distress) ([3]; 50 mg./kg. oral) [%],% Inhibition (platelet aggregation) ([4]; 10 mg./kg. oral) [%],% Inhibition (platelet aggregation) ([4]; 25 mg./kg. oral) [%],% Inhibition (platelet aggregation) ([4]; 50 mg./kg. oral) [%],"Score (avg.) 1 hour [5, 8]","Score (avg.) 4 hour [5, 8]","Score (avg.) 1 hour [5, 9]","Score (avg.) 4 hour [5, 9]","Score (avg.) 1 hour [5, 10]","Score (avg.) 4 hour [5, 10]",C/T Edema Ratio [6],"% Inhibition of Swelling (primary lesion) ([7]; 14th day post challenge, injected paw) [%]","% Inhibition of Control grade (secondary lesion) ([7]; 14th day, grade scale 0 to 24) [%]"
O=C1CCC(c2ccc(-c3ccccc3)cc2)O1 (stereo not drawn) [5-(4-biphenylyl)-2-hydro-2-(3H)-furanone],antiphlogistic,inhibitory,–,–,–,–,–,–,–,–,–,–,–,–,–,–,–,–
O=C(O)CCC(O)c1ccc(-c2ccccc2)cc1 (stereo not drawn) [γ-Hydroxy-4-biphenylbutyric acid],–,–,46,51,66,63,25,25,19,0,2.1,0.4,2.9,0,2.0,2.0,51,30
